Laboratory results: publication PMC3128788 (Nuclear medicine and biology, 2011)
Marks after values point to notes of the source that are not given here.

How the values were obtained:
[1] = tested on: P-gp expressed in Madin-Darby canine kidney (MDCK)-MDR1 cells; settings: efflux blocked with verapamil; cited from earlier work
[2] = format: in vivo, male Sprague Dawley rats
[3] = CycA […] mg/kg i.v. 30 min before tracer, 5 min post-injection
[4] = CycA […] mg/kg i.v. 30 min before tracer, 30 min post-injection
[5] = control rats, i.v., 5 min post-injection
[6] = control rats, i.v., 30 min post-injection
[7] = ratio of tracer uptake in CycA versus control group 30 min post injection

## O=C(NC/C=C/CN1CCN(c2cccc(Cl)c2Cl)CC1)c1ccc(-c2ccccn2)cc1 [PG 01037]
[1]
  Substrate for P-gp: substrate for P-gp

## COc1ccccc1N1CCN(CCCCNC(=O)c2ccc(CC[18F])cc2)CC1 [[^18F]7, 4-(2-[^18F]-fluoroethyl)-N-(4-(4-(2-methoxyphenyl)piperazin-1-yl)butyl)benzamide]
[2]; [3]
  Blood %ID/gram, 5 min CycA: 0.156 ± 0.033 %ID/gram
  Bone %ID/gram, 5 min CycA: 0.232 ± 0.015 %ID/gram
  Fat %ID/gram, 5 min CycA: 0.062 ± 0.017 %ID/gram
  Kidney %ID/gram, 5 min CycA: 1.782 ± 0.242 %ID/gram
  Liver %ID/gram, 5 min CycA: 1.790 ± 0.286 %ID/gram
  Lung %ID/gram, 5 min CycA: 1.423 ± 0.262 %ID/gram
  Muscle %ID/gram, 5 min CycA: 0.158 ± 0.055 %ID/gram
  Total brain %ID/gram, 5 min CycA: 0.421 ± 0.115 %ID/gram
[2]; [4]
  Blood %ID/gram, 30 min CycA: 0.178 ± 0.018 %ID/gram
  Bone %ID/gram, 30 min CycA: 0.168 ± 0.016 %ID/gram
  Fat %ID/gram, 30 min CycA: 0.069 ± 0.011 %ID/gram
  Kidney %ID/gram, 30 min CycA: 0.898 ± 0.076 %ID/gram
  Liver %ID/gram, 30 min CycA: 1.870 ± 0.184 %ID/gram
  Lung %ID/gram, 30 min CycA: 0.563 ± 0.016 %ID/gram
  Muscle %ID/gram, 30 min CycA: 0.147 ± 0.006 %ID/gram
  Total brain %ID/gram, 30 min CycA: 0.271 ± 0.068 %ID/gram
[2]; CycA pretreated versus control rats, 5 min post injection
  Increase in brain uptake after CycA administration at 5 min: 6.3 fold
[2]; CycA pretreated versus control rats, 30 min post injection
  Increase in brain uptake after CycA administration at 30 min: 2.7 fold
[2]; [5]
  Blood %ID/gram, 5 min No Rx: 0.133 ± 0.018 %ID/gram
  Bone %ID/gram, 5 min No Rx: 0.243 ± 0.041 %ID/gram
  Fat %ID/gram, 5 min No Rx: 0.084 ± 0.036 %ID/gram
  Kidney %ID/gram, 5 min No Rx: 1.582 ± 0.293 %ID/gram
  Liver %ID/gram, 5 min No Rx: 2.035 ± 0.578 %ID/gram
  Lung %ID/gram, 5 min No Rx: 1.182 ± 0.086 %ID/gram
  Muscle %ID/gram, 5 min No Rx: 0.107 ± 0.017 %ID/gram
[2]; [6]
  Blood %ID/gram, 30 min No Rx: 0.167 ± 0.018 %ID/gram
  Bone %ID/gram, 30 min No Rx: 0.164 ± 0.018 %ID/gram
  Fat %ID/gram, 30 min No Rx: 0.086 ± 0.013 %ID/gram
  Kidney %ID/gram, 30 min No Rx: 0.952 ± 0.100 %ID/gram
  Liver %ID/gram, 30 min No Rx: 2.169 ± 0.113 %ID/gram
  Lung %ID/gram, 30 min No Rx: 0.668 ± 0.057 %ID/gram
  Muscle %ID/gram, 30 min No Rx: 0.143 ± 0.011 %ID/gram
  Total brain %ID/gram, 30 min No Rx: 0.098 ± 0.012 %ID/gram
[2]; normal rats
  Bone activity levels from 5 min to 30 min (metabolic defluorination): No accumulation
[2]; [7]
  Blood CycA:No Rx: 1.06
  Bone CycA:No Rx: 1.02
  Fat CycA:No Rx: 0.81
  Kidney CycA:No Rx: 0.94
  Liver CycA:No Rx: 0.86 ^e
  Lung CycA:No Rx: 0.84 ^d
  Muscle CycA:No Rx: 1.03
  Total brain CycA:No Rx: 2.77 ^f
